Measured values as given in PubChem BioAssay (NCI).
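All cell lines were grown in 96-well plates and treated with compound for 48 hours. The concentration for full growth arrest is given as TGI.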

Key:
Assay in all cases: NCI tumour cell line growth inhibition, 48 h
CCRF-CEM leukemia = test system: CCRF-CEM leukemia
U251 CNS = test system: U251 CNS
MCF7 breast = test system: MCF7 breast
T-47D breast = test system: T-47D breast
SK-MEL-28 melanoma = test system: SK-MEL-28 melanoma
HS 578T breast = test system: HS 578T breast
A549 NSCLC = test system: A549 NSCLC
M14 melanoma = test system: M14 melanoma
MDA-N = test system: MDA-N
RXF 393 renal = test system: RXF 393 renal

## CN(C)c1ccc(/C=C/C(=O)c2cc(C(C)(C)C)c(O)c(C(C)(C)C)c2)cc1
CCRF-CEM leukemia
  TGI: > 25.7 µM
U251 CNS
  TGI: 5.79 µM
MCF7 breast
  TGI: > 100 µM
T-47D breast
  TGI: > 100 µM
SK-MEL-28 melanoma
  TGI: > 100 µM
HS 578T breast
  TGI: > 100 µM
A549 NSCLC
  TGI: > 100 µM
M14 melanoma
  TGI: > 51.7 µM
MDA-N
  TGI: 0.69 µM
RXF 393 renal
  TGI: 0.511 µM

## CON(C)c1nc(N)c(C#N)c(C#N)c1C#N
CCRF-CEM leukemia
  TGI: > 10 µM
U251 CNS
  TGI: > 10 µM
MCF7 breast
  TGI: > 10 µM
T-47D breast
  TGI: > 10 µM
SK-MEL-28 melanoma
  TGI: > 10 µM
HS 578T breast
  TGI: > 10 µM
A549 NSCLC
  TGI: > 10 µM
M14 melanoma
  TGI: > 10 µM
MDA-N
  TGI: > 10 µM
RXF 393 renal
  TGI: > 10 µM

## c1ccc(CN2CCC(=NN3CCCCC3)CC2)cc1
CCRF-CEM leukemia
  TGI: > 100 µM
U251 CNS
  TGI: > 100 µM
MCF7 breast
  TGI: > 100 µM
T-47D breast
  TGI: > 100 µM
SK-MEL-28 melanoma
  TGI: > 100 µM
HS 578T breast
  TGI: > 100 µM
A549 NSCLC
  TGI: > 100 µM
M14 melanoma
  TGI: > 100 µM
MDA-N
  TGI: > 100 µM
RXF 393 renal
  TGI: > 100 µM

## O=Cc1c2c(cc3c1CC1(C3)Cc3cc4c(c(C=O)c3C1)CCCC4)CCCC2
CCRF-CEM leukemia
  TGI: 30.2 µM
U251 CNS
  TGI: > 31.6 µM
MCF7 breast
  TGI: > 31.6 µM
T-47D breast
  TGI: > 31.6 µM
SK-MEL-28 melanoma
  TGI: > 100 µM
HS 578T breast
  TGI: > 31.6 µM
A549 NSCLC
  TGI: > 31.6 µM
M14 melanoma
  TGI: > 31.6 µM
MDA-N
  TGI: > 31.6 µM
RXF 393 renal
  TGI: > 31.6 µM

## CCCNC1=C2C[C@@H](C)C[C@@H](OC)[C@@H](OC(=O)CCCN)[C@H](C)/C=C(\C)[C@@H](OC(N)=O)[C@H](OC)/C=C\C=C(/C)C(=O)NC(=CC1=O)C2=O
CCRF-CEM leukemia
  TGI: 6.8 µM
U251 CNS
  TGI: > 35 µM
MCF7 breast
  TGI: 31.4 µM
T-47D breast
  TGI: 28.5 µM
SK-MEL-28 melanoma
  TGI: 36.1 µM
HS 578T breast
  TGI: 60.9 µM
A549 NSCLC
  TGI: 40.6 µM
M14 melanoma
  TGI: 32.3 µM
MDA-N
  TGI: 30.1 µM
RXF 393 renal
  TGI: 33.3 µM

## COc1ccccc1N1CCN(CCCCNC(=O)c2ccc([N+](=O)[O-])o2)CC1
CCRF-CEM leukemia
  TGI: 58.2 µM
U251 CNS
  TGI: 24.6 µM
MCF7 breast
  TGI: 22.2 µM
T-47D breast
  TGI: 40.3 µM
SK-MEL-28 melanoma
  TGI: > 100 µM
HS 578T breast
  TGI: 41 µM
A549 NSCLC
  TGI: 19.5 µM
M14 melanoma
  TGI: 14.6 µM
MDA-N
  TGI: 13.6 µM
RXF 393 renal
  TGI: 25.2 µM

## COc1ccccc1-n1cnc2c1NC(C)(C)N=C2C(N)=O
CCRF-CEM leukemia
  TGI: > 100 µM
U251 CNS
  TGI: > 100 µM
MCF7 breast
  TGI: > 100 µM
T-47D breast
  TGI: > 100 µM
SK-MEL-28 melanoma
  TGI: > 100 µM
HS 578T breast
  TGI: > 100 µM
A549 NSCLC
  TGI: > 100 µM
M14 melanoma
  TGI: > 100 µM
MDA-N
  TGI: > 100 µM
RXF 393 renal
  TGI: > 100 µM

## CN1C(=O)N(C)C2(CCN(CC(CC3OCCO3)c3ccc(F)cc3)CC2)C1=O (stereo not given)
CCRF-CEM leukemia
  TGI: > 100 µM
U251 CNS
  TGI: > 100 µM
MCF7 breast
  TGI: > 100 µM
T-47D breast
  TGI: > 100 µM
SK-MEL-28 melanoma
  TGI: > 100 µM
HS 578T breast
  TGI: > 100 µM
A549 NSCLC
  TGI: > 100 µM
M14 melanoma
  TGI: > 100 µM
MDA-N
  TGI: > 100 µM
RXF 393 renal
  TGI: > 100 µM

## O=C1CC(c2ccc(Cl)cc2)C2(C(=O)NC(=S)NC2=O)C(c2ccc(Cl)cc2)C1 (stereo not given)
CCRF-CEM leukemia
  TGI: 75.4 µM
U251 CNS
  TGI: 79.7 µM
MCF7 breast
  TGI: 32.1 µM
T-47D breast
  TGI: 74.1 µM
SK-MEL-28 melanoma
  TGI: 30.6 µM
HS 578T breast
  TGI: 99.4 µM
A549 NSCLC
  TGI: 73 µM
M14 melanoma
  TGI: 44.7 µM
MDA-N
  TGI: 34.1 µM
RXF 393 renal
  TGI: 29.4 µM

## CC[C@H](C)[C@H](NC(=O)N(CCC#N)CCN(CCN(C(=O)N[C@@H](Cc1ccccc1)C(=O)OC)c1ccccc1)C(=O)N[C@H](C(=O)OC)C(C)C)C(=O)OC
CCRF-CEM leukemia
  TGI: 56.1 µM
U251 CNS
  TGI: 36.1 µM
MCF7 breast
  TGI: 74.6 µM
T-47D breast
  TGI: 47.2 µM
SK-MEL-28 melanoma
  TGI: 29.7 µM
HS 578T breast
  TGI: 86.6 µM
A549 NSCLC
  TGI: > 100 µM
M14 melanoma
  TGI: 44.8 µM
MDA-N
  TGI: 31.7 µM
RXF 393 renal
  TGI: 37.8 µM

## C[C@@H]1C[C@H]2OC(=O)[C@@]3(C)CCC[C@@](C)([C@@H]23)[C@@]1(O)CCc1ccoc1
CCRF-CEM leukemia
  TGI: > 100 µM
U251 CNS
  TGI: > 100 µM
MCF7 breast
  TGI: > 100 µM
T-47D breast
  TGI: > 100 µM
SK-MEL-28 melanoma
  TGI: > 100 µM
HS 578T breast
  TGI: > 100 µM
A549 NSCLC
  TGI: > 100 µM
M14 melanoma
  TGI: > 100 µM
MDA-N
  TGI: > 100 µM
RXF 393 renal
  TGI: > 100 µM

## COC(=O)[C@H](CNC(=O)/C=C/c1ccc(OC(C)=O)c(OC(C)=O)c1)NC(=O)/C=C/c1ccc(OC(C)=O)c(OC(C)=O)c1
CCRF-CEM leukemia
  TGI: > 100 µM
U251 CNS
  TGI: > 100 µM
MCF7 breast
  TGI: > 100 µM
T-47D breast
  TGI: > 100 µM
SK-MEL-28 melanoma
  TGI: > 100 µM
HS 578T breast
  TGI: > 100 µM
A549 NSCLC
  TGI: > 100 µM
M14 melanoma
  TGI: > 100 µM
MDA-N
  TGI: > 100 µM
RXF 393 renal
  TGI: > 100 µM

## O=C(N/N=C(/COc1ccccc1)N=Cc1ccncc1)c1ccncc1
CCRF-CEM leukemia
  TGI: > 100 µM
U251 CNS
  TGI: > 100 µM
MCF7 breast
  TGI: > 100 µM
T-47D breast
  TGI: > 100 µM
SK-MEL-28 melanoma
  TGI: > 100 µM
HS 578T breast
  TGI: > 100 µM
A549 NSCLC
  TGI: > 100 µM
M14 melanoma
  TGI: > 100 µM
MDA-N
  TGI: > 100 µM
RXF 393 renal
  TGI: > 100 µM

## C/C=C1\CC(C(=O)OCC)CCCCCCC1=O (stereo not given)
CCRF-CEM leukemia
  TGI: > 100 µM
U251 CNS
  TGI: > 100 µM
MCF7 breast
  TGI: > 100 µM
T-47D breast
  TGI: > 100 µM
SK-MEL-28 melanoma
  TGI: > 100 µM
HS 578T breast
  TGI: > 100 µM
A549 NSCLC
  TGI: > 100 µM
M14 melanoma
  TGI: > 100 µM
MDA-N
  TGI: > 100 µM
RXF 393 renal
  TGI: > 100 µM

## O=c1oc2ccc([N+](=O)[O-])cc2nc1/C=C(\O)c1ccccc1
CCRF-CEM leukemia
  TGI: > 100 µM
U251 CNS
  TGI: > 100 µM
MCF7 breast
  TGI: > 100 µM
T-47D breast
  TGI: > 100 µM
SK-MEL-28 melanoma
  TGI: > 100 µM
HS 578T breast
  TGI: > 100 µM
A549 NSCLC
  TGI: > 100 µM
M14 melanoma
  TGI: > 100 µM
MDA-N
  TGI: > 100 µM
RXF 393 renal
  TGI: > 100 µM

## COc1ccc(-c2nc(-c3ccc(OC)cc3)n(-c3ccccc3)n2)cc1
CCRF-CEM leukemia
  TGI: > 100 µM
U251 CNS
  TGI: > 100 µM
MCF7 breast
  TGI: > 100 µM
T-47D breast
  TGI: > 100 µM
SK-MEL-28 melanoma
  TGI: > 100 µM
HS 578T breast
  TGI: > 100 µM
A549 NSCLC
  TGI: > 100 µM
M14 melanoma
  TGI: > 100 µM
MDA-N
  TGI: > 100 µM
RXF 393 renal
  TGI: > 100 µM
